Data reported in US8906825B2, “Herbicidal compositions comprising 4-amino-3-chloro-5-fluoro-6-(4-chloro-2-fluoro-3-methoxyphenyl) pyridine-2-carboxylic acid or a derivative thereof and triazolopyrimidine sulfonamides” (Dow AgroSciences LLC, priority 2012, dated 2014).

Experiments:
Type in all cases: in vivo
[1] = test system: FIMMI (Fimbristylis miliacea (L.) Vahl, globe fringerush); test: In-water applied herbicidal mixtures, transplanted paddy rice, greenhouse (Example II)
Procedure: (§1) Weed seeds or nutlets of the desired test plant species were planted in puddled soil (mud) prepared by mixing a shredded, non-sterilized mineral soil (50.5 percent silt, 25.5 percent clay, and 24 percent sand, with a pH of about 7.6 and an organic matter content of about 2.9 percent) and water at a 1:1 volumetric ratio. The prepared mud was dispensed in 365 mL aliquots into 16-ounce (oz.) non-perforated plastic pots with a surface area of 86.59 square centimeters (cm^2) leaving a headspace of 3 centimeters in each pot. Mud was allowed to dry overnight prior to planting or transplanting. Rice seeds were planted in Sun Gro MetroMix® 306 planting mixture, which typically has a pH of 6.0 to 6.8 and an organic matter content of about 30 percent, in plastic plug trays. Seedlings at the second or third leaf stage of growth were transplanted into 840 mL of mud contained in 32-oz. non-perforated plastic pots with a surface area of 86.59 cm^2 4 days prior to herbicide application. The paddy was created by filling the headspace of the pots with 2.5 to 3 cm of water. When required to ensure good germination and healthy plants, a fungicide treatment and/or other chemical or physical treatment was applied. The plants were grown for 4-22 days in a greenhouse with an approximate 14 h photoperiod which was maintained at about 29′C during the day and about 26° C. during the night. Nutrients were added as Osmocote® (19:6:12, N:P:K+minor nutrients) at 2 g per 16-oz. pot and 4 g per 32-oz. pot. Water was added on a regular basis to maintain the paddy flood, and supplemental lighting was provided with overhead metal halide 1000-Watt lamps as necessary. The plants were employed for testing when they reached the first through fourth true leaf stage.
(§2) Treatments consisted of the acid or esters of 4-amino-3-chloro-5-fluoro-6-(4-chloro-2-fluoro-3-methoxy-phenyl)pyridine-2-carboxylic acid (compound A) each formulated as an SC and various herbicidal components alone and in combination. Forms of compound A were applied on an acid equivalent basis.
(§3) Other herbicidal components were applied on an active ingredient basis and included acetolactate synthase (ALS)-inhibiting herbicides (sulfonamide chemical class) penoxsulam formulated as Grasp® SC (GF-443), diclosulam formulated as Strongarm®, and cloransulam-methyl formulated as FirstRate®.
(§4) Treatment requirements for each compound or herbicidal component were calculated based upon the rates being tested, the concentration of active ingredient or acid equivalent in the formulation, an application volume of 2 mL per component per pot, and an application area of 86.59 cm^2 per pot.
(§5) For formulated compounds, a measured amount was placed in an individual 100 or 200 mL glass vial and was dissolved in a volume of 1.25% (v/v) Agri-Dex® crop oil concentrate to obtain each application solution.
(§6) Applications were made by injecting with a pipetter appropriate amounts of the application solutions, individually and sequentially, into the aqueous layer of the paddy. Control plants were treated in the same manner with the solvent blank. Applications were made so that all treated plant material received the same concentrations of acetone and crop oil concentrate.
(§7) The treated plants and control plants were placed in a greenhouse as described above and water was added as needed to maintain a paddy flood. After approximately 3 weeks the condition of the test plants as compared with that of the untreated plants was determined visually and scored on a scale of 0 to 100 percent where 0 corresponds to no injury or growth inhibition and 100 corresponds to complete kill.
(§8) Colby's equation was used to determine the herbicidal effects expected from the mixtures (Colby, S. R. 1967. Calculation of the synergistic and antagonistic response of herbicide combinations. Weeds 15:20-22.).
(§9) The following equation was used to calculate the expected activity of mixtures containing two active ingredients, A and B: Expected=A+B−(A×B/100)

[2] = test system: CYPDI (Cyperus difformis L., smallflower umbrella sedge); test: as above
Procedure: as §1, §2, §3, §4, §5, §6, §7, §8, §9

[3] = test system: ECHCG (Echinochloa crusgalli (L.) Beauv., barnyardgrass); test: as above
Procedure: as §1, §2, §3, §4, §5, §6, §7, §8, §9

[4] = test system: DIGSA (Digitaria sanguinalis (L.) Scop., large crabgrass); test: Postemergence foliar-applied herbicidal mixtures, direct seeded rice, greenhouse (Example I)
Description: (§10) Seeds or nutlets of the desired test plant species were planted in a soil matrix prepared by mixing a loam or sandy loam soil (e.g., 28.6 percent silt, 18.8 percent clay, and 52.6 percent sand, with a pH of about 5.8 and an organic matter content of about 1.8 percent) and calcareous grit in an 80 to 20 ratio. The soil matrix was contained in plastic pots with a volume of 1 quart and a surface area of 83.6 square centimeters (cm^2). When required to ensure good germination and healthy plants, a fungicide treatment and/or other chemical or physical treatment was applied. The plants were grown for 8-22 days in a greenhouse with an approximate 14 h photoperiod which was maintained at about 29° C. during the day and about 26° C. during the night. Nutrients (Peters Excel® 15-5-15 5-Ca 2-Mg and iron chelate) were applied in the irrigation solution as needed and water was added on a regular basis. Supplemental lighting was provided with overhead metal halide 1000-Watt lamps as necessary. The plants were employed for testing when they reached the first through fourth true leaf stage.
as §2, with “(Compound A),” for “(compound A)”, “SC (suspension concentrate),” for “SC”
as §3, with “SC,” for “SC (GF-443),”, “FirstRate®, flumetsulam formulated as Flumetsulam WG, and metosulam formulated as Eclipse®.” for “FirstRate®.”
(§11) Treatment requirements were calculated based upon the rates being tested, the concentration of active ingredient or acid equivalent in the formulation, and a 12 mL application volume at a rate of 187 L/ha.
(§12) For treatments comprised of formulated compounds, measured amounts of compounds were placed individually in 25 mL glass vials and diluted in a volume of 1.25% (v/v) Agri-Dex® crop oil concentrated to obtain 12× stock solutions. […] Application solutions were prepared by adding an appropriate amount of each stock solution (e.g., 1 mL) and diluted to the appropriate final concentrations with the addition of 10 mL of an aqueous mixture of 1.25% (v/v) crop oil concentrate so that the final spray solutions contained 1.25+/−0.05% (v/v) crop oil concentrate.
(§13) All stock solutions and applications solutions were visually inspected for compound compatibility prior to application. Spray solutions were applied to the plant material with an overhead Mandel track sprayer equipped with an 8002E nozzle calibrated to deliver 187 L/ha over an application area of 0.503 m^2 at a spray height of 18 to 20 inches (46 to 50 cm) above average plant canopy height. Control plants were sprayed in the same manner with the solvent blank.
as §7, with “watered by sub-irrigation” for “water was added as needed”, “prevent wash-off of the test compounds.” for “maintain a paddy flood.”, “weeks,” for “weeks”
as §8, §9

[5] = test system: CYPIR (Cyperus iria L., rice flatsedge); test: as above
Description: as §10
as §2, with “(Compound A),” for “(compound A)”, “SC (suspension concentrate),” for “SC”
as §3, with “SC,” for “SC (GF-443),”, “FirstRate®, flumetsulam formulated as Flumetsulam WG, and metosulam formulated as Eclipse®.” for “FirstRate®.”
as §11, §12, §13
as §7, with “watered by sub-irrigation” for “water was added as needed”, “prevent wash-off of the test compounds.” for “maintain a paddy flood.”, “weeks,” for “weeks”
as §8, §9

[6] = test system: LEFCH (Leptochloa chinensis (L.) Nees, Chinese sprangletop); test: as above
Description: as §10
as §2, with “(Compound A),” for “(compound A)”, “SC (suspension concentrate),” for “SC”
as §3, with “SC,” for “SC (GF-443),”, “FirstRate®, flumetsulam formulated as Flumetsulam WG, and metosulam formulated as Eclipse®.” for “FirstRate®.”
as §11, §12, §13
as §7, with “watered by sub-irrigation” for “water was added as needed”, “prevent wash-off of the test compounds.” for “maintain a paddy flood.”, “weeks,” for “weeks”
as §8, §9

[7] = test system: CYPRO (Cyperus rotundus L., purple nutsedge); test: In-water applied herbicidal mixtures, transplanted paddy rice, greenhouse (Example II)
Procedure: as §1, §2, §3, §4, §5, §6, §7, §8, §9

[8] = test system: LEFCH (Leptochloa chinensis (L.) Nees, Chinese sprangletop); test: as above
Procedure: as §1, §2, §3, §4, §5, §6, §7, §8, §9

[9] = test system: IPOHE (Ipomoea hederacea Jacq., ivyleaf morningglory); test: Postemergence foliar-applied herbicidal mixtures, direct seeded rice, greenhouse (Example I)
Description: as §10
as §2, with “(Compound A),” for “(compound A)”, “SC (suspension concentrate),” for “SC”
as §3, with “SC,” for “SC (GF-443),”, “FirstRate®, flumetsulam formulated as Flumetsulam WG, and metosulam formulated as Eclipse®.” for “FirstRate®.”
as §11, §12, §13
as §7, with “watered by sub-irrigation” for “water was added as needed”, “prevent wash-off of the test compounds.” for “maintain a paddy flood.”, “weeks,” for “weeks”
as §8, §9

Compound: CCOc1nc(F)cc2nc(S(=O)(=O)Nc3c(Cl)cccc3C(=O)OC)nn12 [Cloransulam-methyl, methyl 3-chloro-2-[[(5-ethoxy-7-fluoro[1,2,4]triazolo[1,5-c]pyrimidin-2-yl)sulfonyl]amino]benzoate, reference compound]
- Visual Weed Control (%) - 21 DAA FIMMI Obs ([1]; Cloransulam-methyl 17.5 gai/ha, Table 14): 40%
- Visual Weed Control (%) - 21 DAA FIMMI Obs ([1]; Cloransulam-methyl 17.5 gai/ha, Table 15): 40%
- Visual Weed Control (%) - 21 DAA FIMMI Obs ([1]; Cloransulam-methyl 35 gai/ha, Table 14): 60%
- Visual Weed Control (%) - 21 DAA FIMMI Obs ([1]; Cloransulam-methyl 35 gai/ha, Table 15): 60%
- Visual Weed Control (%) - 21 DAA CYPDI Obs ([2]; Cloransulam-methyl 17.5 gai/ha): 40%
- Visual Weed Control (%) - 21 DAA CYPDI Obs ([2]; Cloransulam-methyl 35 gai/ha): 80%
- Visual Weed Control (%) - 22 DAA ECHCG Obs ([3]; Cloransulam-methyl 17.5 gai/ha): 50%
- Visual Weed Control (%) - 20 DAA DIGSA Obs ([4]; Cloransulam-methyl 2.19 gai/ha): 10%
- Visual Weed Control (%) - 20 DAA CYPIR Obs ([5]; Cloransulam-methyl 4.38 gai/ha): 70%
- Visual Weed Control (%) - 20 DAA CYPIR Obs ([5]; Cloransulam-methyl 8.75 gai/ha): 85%
- Visual Weed Control (%) - 20 DAA LEFCH Obs ([6]; Cloransulam-methyl 2.19 gai/ha, Table 7): 0%
- Visual Weed Control (%) - 20 DAA LEFCH Obs ([6]; Cloransulam-methyl 4.38 gai/ha, Table 6): 0%
- Visual Weed Control (%) - 20 DAA LEFCH Obs ([6]; Cloransulam-methyl 4.38 gai/ha, Table 7): 0%
- Visual Weed Control (%) - 20 DAA LEFCH Obs ([6]; Cloransulam-methyl 8.75 gai/ha, Table 6): 0%

Compound: CCOc1nc(F)cc2nc(S(=O)(=O)Nc3c(Cl)cccc3Cl)nn12 [Diclosulam, N-(2,6-dichlorophenyl)-5-ethoxy-7-fluoro[1,2,4]triazolo[1,5-c]pyrimidine-2-sulfonamide, reference compound]
- Visual Weed Control (%) - 21 DAA CYPRO Obs ([7]; Diclosulam 6.62 gai/ha): 80%
- Visual Weed Control (%) - 21 DAA CYPRO Obs ([7]; Diclosulam 13.25 gai/ha): 80%
- Visual Weed Control (%) - 21 DAA ECHCG Obs ([3]; Diclosulam 6.62 gai/ha): 70%
- Visual Weed Control (%) - 20 DAA LEFCH Obs ([6]; Diclosulam 6.62 gai/ha, Table 4): 0%
- Visual Weed Control (%) - 20 DAA LEFCH Obs ([6]; Diclosulam 6.62 gai/ha, Table 5): 0%
- Visual Weed Control (%) - 20 DAA LEFCH Obs ([6]; Diclosulam 13.25 gai/ha, Table 5): 20%

Compound: COc1c(Cl)ccc(-c2nc(C(=O)O)c(Cl)c(N)c2F)c1F [Compound A Acid, 4-amino-3-chloro-5-fluoro-6-(4-chloro-2-fluoro-3-methoxy-phenyl)pyridine-2-carboxylic acid]
- Visual Weed Control (%) - 21 DAA FIMMI Obs ([1]; Compound A Acid 16 gae/ha): 20%
- Visual Weed Control (%) - 21 DAA FIMMI Obs ([1]; Compound A Acid 32 gae/ha): 20%
- Visual Weed Control (%) - 21 DAA CYPDI Obs ([2]; Compound A Acid 16 gae/ha): 30%
- Visual Weed Control (%) - 21 DAA CYPRO Obs ([7]; Compound A Acid 8.75 gae/ha): 0%
- Visual Weed Control (%) - 22 DAA ECHCG Obs ([3]; Compound A Acid 16 gae/ha): 20%
- Visual Weed Control (%) - 22 DAA ECHCG Obs ([3]; Compound A Acid 32 gae/ha): 25%
- Visual Weed Control (%) - 25 DAA LEFCH Obs ([8]; Compound A Acid 8.75 gae/ha): 50%
- Visual Weed Control (%) - 25 DAA LEFCH Obs ([8]; Compound A Acid 17.5 gae/ha): 50%
- Visual Weed Control (%) - 25 DAA LEFCH Obs ([8]; Compound A Acid 35 gae/ha): 85%
- Visual Weed Control (%) - 20 DAA DIGSA Obs ([4]; Compound A Acid 5.3 gae/ha): 10%
- Visual Weed Control (%) - 20 DAA DIGSA Obs ([4]; Compound A Acid 10.6 gae/ha): 20%
- Visual Weed Control (%) - 20 DAA DIGSA Obs ([4]; Compound A Acid 21.2 gae/ha): 20%
- Visual Weed Control (%) - 27 DAA IPOHE Obs ([9]; Compound A Acid 4.38 gae/ha): 10%
- Visual Weed Control (%) - 27 DAA IPOHE Obs ([9]; Compound A Acid 8.75 gae/ha): 10%
- Visual Weed Control (%) - 27 DAA IPOHE Obs ([9]; Compound A Acid 17.5 gae/ha): 10%
- Visual Weed Control (%) - 20 DAA LEFCH Obs ([6]; Compound A Acid 4.38 gae/ha): 15%
- Visual Weed Control (%) - 20 DAA LEFCH Obs ([6]; Compound A Acid 5.3 gae/ha): 0%
- Visual Weed Control (%) - 20 DAA LEFCH Obs ([6]; Compound A Acid 8.75 gae/ha): 30%
- Visual Weed Control (%) - 20 DAA LEFCH Obs ([6]; Compound A Acid 10.6 gae/ha): 10%
- Visual Weed Control (%) - 20 DAA LEFCH Obs ([6]; Compound A Acid 17.5 gae/ha): 50%
- Visual Weed Control (%) - 19 DAA LEFCH Obs ([6]; Compound A Acid 19.4 gae/ha): 5%
- Visual Weed Control (%) - 20 DAA LEFCH Obs ([6]; Compound A Acid 21.2 gae/ha): 15%
